# System: B antigen expression in HaCaT cells harboring B antigen
# Assay: Effect of ABH antigen-constituting monosaccharides and mixtures on B antigen expression, Western blotting
# Assay type: cell-based
# Details: HaCaT cells, 0.1, 1 and 10 μM, 24 hours
# Method: HaCaT cells harboring B antigen was treated respectively with FGG and FGGN mixture and FG (Fucose:Galactose=1:1, H-antigen composition) mixture which compose A, B, and H antigen, and also glucose, galactose, fucose, N-acetylgalactosamine and N-acetylglucosamine which are monosaccharides that constitute A, B, and H antigen at different concentrations of 0.1, 1, and 10 μM for 24 hours. Western blotting was performed to investigate the expression of B antigen. As a result, the expression of B antigen was increased in every case above (FIG. 9).
row,Compound,expression of B antigen
1,CC(=O)N[C@H]1C(O)O[C@H](CO)[C@H](O)[C@@H]1O (stereo partly shown) [N-acetylgalactosamine],increased
2,CC(=O)N[C@H]1C(O)O[C@H](CO)[C@@H](O)[C@@H]1O (stereo partly shown) [N-acetylglucosamine],increased
3,C[C@H](O)[C@@H](O)[C@@H](O)[C@H](O)C=O [fucose],increased
4,O=C[C@H](O)[C@@H](O)[C@@H](O)[C@H](O)CO [galactose],increased

# Source: patent US8545851B2, “Composition for improving inflammatory disease using ABH antigens” (SNU R&DB Foundation, priority 2009, dated 2013)
